# Values quoted from earlier work in patent publication US12090222B2, “Method for dyeing keratin material, comprising the use of an organosilicon compound, two dyeing compounds and a post-treatment agent” (Henkel AG & Co. KGaA, priority 2020, dated 2024).
# Settings: 25° C.
solubility in water (in words),Compound,solubility in water
–,"O=S(=O)([O-])c1ccc(N=Nc2c(O)ccc3ccccc23)cc1.[Na+] [Acid Orange 7, sodium salt of 4-[(2-hydroxy-1-naphthyl)azo]benzene sulphonate]",more than 7 g/L
–,"Nc1cc(S(=O)(=O)[O-])cc2cc(S(=O)(=O)[O-])c(N=Nc3ccccc3)c(O)c12.[Na+].[Na+] [Acid Red 33, disodium salt of 5-amino-4-hydroxy-3-(phenylazo)-naphthalene-2,7-disulphonate]",about 2.5 g/L
–,"O=C([O-])c1c(Cl)c(Cl)c(Cl)c(Cl)c1-c1c2c(Br)cc(=O)c(Br)c-2oc2c(Br)c(O)cc(Br)c12.O=C([O-])c1c(Cl)c(Cl)c(Cl)c(Cl)c1-c1c2c(Br)cc(=O)c(Br)c-2oc2c(Br)c(O)cc(Br)c12.[Na+].[Na+] [Acid Red 92, disodium salt of 3,4,5,6-tetrachloro-2-(1,4,5,8-tetrabromo-6-hydroxy-3-oxoxanthen-9-yl)benzoic acid]",greater than 10 g/L
highly soluble,"O=C([O-])C1=NN(c2ccc(S(=O)(=O)[O-])cc2)C(=O)C1N=Nc1ccc(S(=O)(=O)[O-])cc1.[Na+].[Na+].[Na+] (centres unmarked) [Acid Yellow 23, trisodium salt of 4,5-dihydro-5-oxo-1-(4-sulfophenyl)-4-((4-sulfophenyl)azo)-1H-pyrazole-3-carboxylic acid]",–
–,"mixture of the sodium salts of mono- and disulfonic acids of 2-(2-quinolyl)-1H-indene-1,3(2H)-dione [Acid Yellow 3]",about 20 g/L
